Patent US20100331722A1, “Device and method for assessing operant facial pain” (priority 2004, published 2010)
Entries after “also recorded” stand apart in the source; their conditions may differ.

System: orofacial inflammatory pain
Assay: thermal operant orofacial pain test after carrageenan-induced orofacial inflammation
Assay type: in vivo, Male Sprague Dawley rats
Protocol: General. Male Sprague Dawley rats (200-300 g, N=18) were lightly anesthetized using isoflurane (1-2.5%, inhalation) and their hair was bilaterally removed (FIG. 1) from the orofacial region using clippers, followed by depilatory cream 1 day prior to behavioral testing. Excess cream was removed with a moistened paper towel to minimize skin irritation. Rats were food fasted for 12-15 hours prior to each testing session and following each session were provided with standard food chow. Animals were tested at the same time of the day and a recovery day from the fasting was included between the testing sessions to minimize nutritional differences from their normal food routine. Water was made available ad libitum before and after testing sessions and animal weight was recorded daily. The animals were then brought into the behavioral procedure room 1 hour prior to testing and allowed to acclimate to the temperature and ambient noise of the room. Animal testing procedures and general handling complied with the ethical guidelines and standards established by the Institutional Animal Care and Use Committee at the University of Florida and all procedures complied with the Guide for Care and Use of Laboratory Animals (Council, 1996).
Thermal Testing. A testing cage (20.3 cm W×20.3 cm D×16.2 cm H) with acrylic walls was constructed with an opening in one wall (4×6 cm) which was lined with grounded metal (aluminum) tubing. The tubing served as a thermode when connected to a water pump (Model RTE110B, NES Laboratories, Inc.) via flexible polyethylene tubing through which heated water (range: 37.7-57.2° C.) was circulated (FIGS. 2A and 2B). A standard rodent watering bottle containing a diluted (1:2 with water) sweetened condensed milk solution (Nestle Carnation Company, room temperature) was mounted outside the cage. The circulating water pump was activated and the appropriate temperature was set prior to testing the animals. The room temperature was maintained at 22±1° C. for all behavioral tests.
Unrestrained animals were placed separately in a testing cage, and the data acquisition system was activated (WinDaq Lite Data Acq DI-194, DATAQ Instruments, Inc). The bottle was then positioned in proximity to the cage such that the animal was allowed access to the reward bottle when simultaneously contacting the thermode with its face. The metal spout on the watering bottle was connected to a 13-volt DC power supply and, in series, to a multi-channel data acquisition module (WinDaq Lite Data Acq DI-194, DATAQ Instruments, Inc.). When the rat drank from the water bottle, the skin on its shaved face contacted the grounded thermode, and the animal's tongue contacted the metal spout on the water bottle, completing an electrical circuit (FIG. 2A). The bottle position was adjusted horizontally and vertically to facilitate contact of the thermode within the same shaved area of the face for each animal (FIG. 2B). The closed circuit was registered in the computer and data were collected at 60 Hz for the entire length of the experiment. Each spout contact was recorded as a ‘licking’ event. A separate circuit was established from the metal thermode to the animal by grounding the floor with an aluminum sheet for recording of ‘facial contact’ events (FIG. 3). The latter circuit was necessary to determine if the animal made an attempt at the reward bottle but was discouraged by the temperature of the thermode. The duration of each facial contact and the total number of events (licking, facial contact) were recorded. The investigator monitored online data acquisition to ensure that each recorded licking event from the first circuit corresponded to a recorded facial contact on the tubing (the second circuit). […]

[1] = one animal, retested 30 minutes after morphine 0.5 mg/kg s.c., post-inflammation

Molecule | effect on inflammatory hyperalgesia (operant outcome measures) (morphine 0.5 mg/kg s.c. 30 minutes prior to testing, 2.5 hours post-carrageenan, 45.5° C., N=6) | operant outcome measures of morphine-treated inflamed animals versus normal animals (morphine-treated animals tested at 45.5° C., all measures except facial contact events) | intake (post-morphine) (one animal, retested 30 minutes after morphine 0.5 mg/kg s.c., given after the 3 hours post-inflammation trial, 30-minute operant trial) [g] | facial contact duration (post-morphine) [1] [s] | facial contacts (post-morphine) [1] | licking events (post-morphine) [1] | ratio facial duration/facial contact (post-morphine) [1] | ratio licking/contact events (post-morphine) [1] | operant responses after morphine, pain indices (FIG. 7) (single animal, repeated testing following carrageenan, before and after morphine) | effect of carrageenan inflammation on operant outcome measures (carrageenan 6 mg s.c. mid-cheek bilaterally, tested 3 hours post-inflammation at 45.5° C., all measures except facial contact events (FIG. 6))
CN1CC[C@]23c4c5ccc(O)c4O[C@H]2[C@@H](O)C=C[C@H]3[C@H]1C5 [morphine] | all but one of these effects was completely reversed; also recorded: completely blocked | comparable to normal animals tested at 37.7 °C | 17.8 | 634 | 309 | 3582 | 2.05 | 11.6 | analgesic response | 
carrageenan |  |  |  |  |  |  |  |  |  | significant reduction
